Reference: patent US4568490A, “Aminopropylaminobleomycin derivatives and process for preparation thereof” (Zaidan Hojin Biseibutsu Kagaku Kenkyu Kai, priority 1981, dated 1986)

What was measured:
[1] = test system: Mycobacterium smegmatis ATCC 607; assay: Antimicrobial activity, agar plate-cylinder method; format: cell-based; settings: Cu-free form; bleomycin A2 (Cu-free form) standard assumed 1,000 mcg/mg
Experimental: (§1) The activity was assayed against the above test microorganisms by the method of agar plate-cylinder, assuming the potency of bleomycin A2 (Cu-free form), used as standard, to be 1,000 mcg/mg.

[2] = test system: Bacillus subtilis; assay: Antimicrobial activity, agar plate-cylinder method; format: cell-based; settings: Cu-free form; bleomycin A2 (Cu-free form) standard assumed 1,000 mcg/mg
Experimental: (1) Antimicrobial activity against Mycobacterium smegmatis ATCC 697 and Bacillus subtilis.
as §1

[3] = test system: Lymphocytic leukemia P-388; assay: In vivo antitumor activity, murine lymphocytic leukemia P-388; settings: BDF1-SLC mice, i.p. transplant, once daily for 9 days, 30 days observation; T/C more than 130 effective
Experimental: The following data with respect to the testing of a group of the presently claimed substances in vivo according to a standard test method involving murine lymphocytic leukemia P-388 is presented to lend further assurance as to the utility of the compounds as inhibitors of mammalian tumors.
Lymphocytic leukemia P-388 cells (1×10^5 /0.2 ml) were transplanted intraperitoneally into male BDF1 -SLC mice (5 mice/group). Each of the compounds of this invention was diluted with physiological saline to various concentrations. Each dilution was administered at a dose of 0.1 ml/10 g of body weight once daily for 9 days, starting on the day after the day of the transplantation. The mice of the control group were administered physiological saline.
The average number of days that the group receiving the compound of this invention survived was calculated. The figure obtained was divided by the average number of survival days for the control group, and was multiplied by 100 (T/C (%)).
T/C value more than 130 was considered to be effective.

[4] = test system: Hela S3 cells; assay: Growth inhibitory activity against Hela S3 cells; format: cell-based; settings: Cu-free form; Hela S3, 3 days incubation with compound
Experimental: The percentage growth inhibition was calculated using the equation: […] wherein A is the ultimate number of cells on the third day from the addition of a test sample, B is the ultimate number of cells in the control (without the addition of test sample), and C is the number of cells on the day of addition of the test sample.

[5] = test system: ICR strain mice; assay: Pulmonary toxicity (pulmonary fibrosis) in mice, intraperitoneal injection; format: in vivo; settings: 5 mg/kg i.p. once a day for 10 days; for Grade of pulmonary fibrosis, % / Incidence of pulmonary fibrosis, % / Incidence: number of mice suffering from pulmonary fibrosis / Grade: total score of pulmonary fibrosis/total number of test animal: autopsy after 5 weeks; for Incidence: number of mice suffering from pulmonary fibrosis: affected/total mice; for Grade: total score of pulmonary fibrosis/total number of test animal: score 0-6 points; for Grade of pulmonary fibrosis, Ratio / Incidence of pulmonary fibrosis, Ratio: reference of the ratio not stated
Experimental: (3) Pulmonary toxicity (pulmonary fibrosis) in mice.
ICR strain mice (male; 15 weeks old; 9 mice per group) were used. Each mouse was administered with a daily dose of 5 mg/kg of the test sample by intraperitoneal injection, once a day, for 10 consecutive days. After completion of the predetermined administration, the mice were kept for 5 weeks under observation, then slaughtered, and autopsied to examine the incidence and grade of pulmonary fibrosis. The evaluation was made by comparing the number of administered mice suffering from pulmonary fibrosis and the grade of the disease.
(§2) In Tables 4A and 4B, the grade was numerically rated as follows:
(§3) 1 point: Accumulation of exudate in pulmonary alveoli and fibrosis-like change in alveolar septum.
(§4) 2 points: Fibrosis in several areas.
(§5) 4 points: Scattered fibrosis.
(§6) 6 points: Fibrosis in more than two-thirds of the total area.

[6] = test system: ICR mice; assay: Pulmonary toxicity (pulmonary fibrosis) in mice, intratracheal instillation; format: in vivo; settings: 16 μg/50 μl/mouse intratracheally, sacrificed 4 weeks after instillation; for Grade: total score of pulmonary fibrosis/total number of samples: score 0-6 points
Experimental: Male 15 weeks old ICR mice were used. Sixteen μg/50 μl/mouse of each test sample was intratracheally instilled. The mice were sacrificed 4 weeks after instillation to examine the incidence and grade of pulmonary fibrosis. The evaluation was made by comparing the number of administered mice suffering from pulmonary fibrosis and the grade of the disease.
as §2, §3, §4, §5, §6

| SMILES | Antimicrobial potency of Cu--free compound, against Mycobacterium smegmatis ATCC 607 [1] [mcg potency per mg] | Antimicrobial potency of Cu--free compound, against Bacillus subtilis [2] [mcg potency per mg] | Max. T/C on Mouse Lymphocytic Leukemia P 388 [3] [%] | 50% growth inhibition concentration (ID50) of Cu--free compound against cultured Hela cell [4] [µg/mL] | Grade of pulmonary fibrosis, % [5] [%] | Incidence of pulmonary fibrosis, % [5] [%] | Incidence: number of mice suffering from pulmonary fibrosis [5] | Grade: total score of pulmonary fibrosis/total number of test animal [5] | Grade of pulmonary fibrosis, Ratio [5] | Incidence of pulmonary fibrosis, Ratio [5] | Grade of pulmonary fibrosis, % [6] [%] | Incidence of pulmonary fibrosis, % [6] [%] | Incidence: number of mice with pulmonary fibrosis/number of mice [6] | Grade: total score of pulmonary fibrosis/total number of samples [6] |
| --- | --- | --- | --- | --- | --- | --- | --- | --- | --- | --- | --- | --- | --- | --- |
| Cc1c(N)nc(C(CC(N)=O)NCC(N)C(N)=O)nc1C(=O)NC(C(=O)NC(C)C(O)C(C)C(=O)NC(C(=O)NCCc1nc(-c2nc(C(=O)NCCCN(CCCN(Cc3ccccc3)Cc3ccccc3)Cc3ccccc3)cs2)cs1)C(C)O)C(OC1OC(CO)C(O)C(O)C1OC1OC(CO)C(O)C(OC(N)=O)C1O)c1cnc[nH]1 (centres unmarked) [Compound No. 40, 3-{N--benzyl-N--[3'-(dibenzylamino)propyl]amino}propylaminoBLM] | 4450 | 479 | 154 | 1.90 |  |  |  |  |  |  |  |  |  |  |
| Cc1c(N)nc(C(CC(N)=O)NCC(N)C(N)=O)nc1C(=O)NC(C(=O)NC(C)C(O)C(C)C(=O)NC(C(=O)NCCc1nc(-c2nc(C(=O)NCCCN(C)CCCNCc3ccc(Cl)c(Cl)c3)cs2)cs1)C(C)O)C(OC1OC(CO)C(O)C(O)C1OC1OC(CO)C(O)C(OC(N)=O)C1O)c1cnc[nH]1 (centres unmarked) [compound 7, 3-{N--Methyl-N--[3'-(m,p-dichlorobenzylamino)propyl]amino}propylaminoBLM] | 10601 | 4263 |  | 0.82 | 4 | 11 | 1/9 | 1/27 | 0.05 | 0.18 | 13 | 30 | 3/10 | 4/30 |
| Cc1c(N)nc(C(CC(N)=O)NCC(N)C(N)=O)nc1C(=O)NC(C(=O)NC(C)C(O)C(C)C(=O)NC(C(=O)NCCc1nc(-c2nc(C(=O)NCCCN(C)CCCNCc3ccc(Cl)cc3Cl)cs2)cs1)C(C)O)C(OC1OC(CO)C(O)C(O)C1OC1OC(CO)C(O)C(OC(N)=O)C1O)c1cnc[nH]1 (centres unmarked) [compound 8, 3-{N--Methyl-N--[3'-(o,p-dichlorobenzylamino)propyl]amino}propylaminoBLM] | 13013 | 2940 |  | 1.05 | 7 | 11 | 1/9 | 2/27 | 0.08 | 0.18 | 25 | 25 | 2/8 | 6/24 |
| COc1ccc(CNCCCN(C)CCCNC(=O)c2csc(-c3csc(CCNC(=O)C(NC(=O)C(C)C(O)C(C)NC(=O)C(NC(=O)c4nc(C(CC(N)=O)NCC(N)C(N)=O)nc(N)c4C)C(OC4OC(CO)C(O)C(O)C4OC4OC(CO)C(O)C(OC(N)=O)C4O)c4cnc[nH]4)C(C)O)n3)n2)c(OC)c1 (centres unmarked) [compound 13, 3-{N--Methyl-N--[3'-(o,p-dimethoxybenzylamino)propyl]amino}propylaminoBLM] | 5351 | 5312 |  | 1.30 | 11 | 33 | 2/6 | 2/18 | 0.13 | 0.53 | 15 | 22 | 2/9 | 4/27 |
| Cc1c(N)nc(C(CC(N)=O)NCC(N)C(N)=O)nc1C(=O)NC(C(=O)NC(C)C(O)C(C)C(=O)NC(C(=O)NCCc1nc(-c2nc(C(=O)NCCCN(C)CCCNC(C)c3ccc(Cl)cc3)cs2)cs1)C(C)O)C(OC1OC(CO)C(O)C(O)C1OC1OC(CO)C(O)C(OC(N)=O)C1O)c1cnc[nH]1 (centres unmarked) [compound 14, 3-{N--Methyl-N--[3'-(1"-p-chlorophenylethylamino)propyl]amino}propylaminoBLM] | 16959 | 5459 |  | 0.52 | 11 | 22 | 2/9 | 3/27 | 0.13 | 0.35 | 24 | 57 | 4/7 | 5/21 |
| Cc1c(N)nc(C(CC(N)=O)NCC(N)C(N)=O)nc1C(=O)NC(C(=O)NC(C)C(O)C(C)C(=O)NC(C(=O)NCCc1nc(-c2nc(C(=O)NCCCN(C)CCCNCC(c3ccccc3)c3ccccc3)cs2)cs1)C(C)O)C(OC1OC(CO)C(O)C(O)C1OC1OC(CO)C(O)C(OC(N)=O)C1O)c1cnc[nH]1 (centres unmarked) [compound 17, 3-{N--Methyl-N--[3'-(2",2"-diphenylethylamino)propyl]amino}propylaminoBLM] | 21084 | 3554 |  | 1.00 | 7 | 20 | 1/5 | 1/15 | 0.08 | 0.32 | 7 | 22 | 2/9 | 2/27 |
| Cc1c(N)nc(C(CC(N)=O)NCC(N)C(N)=O)nc1C(=O)NC(C(=O)NC(C)C(O)C(C)C(=O)NC(C(=O)NCCc1nc(-c2nc(C(=O)NCCCN(C)CCCNCc3c4ccccc4cc4ccccc34)cs2)cs1)C(C)O)C(OC1OC(CO)C(O)C(O)C1OC1OC(CO)C(O)C(OC(N)=O)C1O)c1cnc[nH]1 (centres unmarked) [compound 21, 3-{N--Methyl-N--[3'-(9-anthramethylamino)propyl]amino}propylaminoBLM] | 13250 | 4504 | 148 | 0.80 |  |  |  |  |  |  |  |  |  |  |
| Cc1c(N)nc(C(CC(N)=O)NCC(N)C(N)=O)nc1C(=O)NC(C(=O)NC(C)C(O)C(C)C(=O)NC(C(=O)NCCc1nc(-c2nc(C(=O)NCCC[N+](C)(C)CCCNCC3CCCCCCC3)cs2)cs1)C(C)O)C(OC1OC(CO)C(O)C(O)C1OC1OC(CO)C(O)C(OC(N)=O)C1O)c1cnc[nH]1 (centres unmarked) [compound 36, 3-{N,N--Dimethyl-N--[3'-(cyclooctylmethylamino)propyl]amino}propylaminoBLM] | 21840 | 20000 | 150 | 0.29 |  |  |  |  |  |  |  |  |  |  |
